Melting point data for six compounds are collected here from patent US6355674B1, “Aminotetralins as 5-HT1D α Agonists” (Eli Lilly and Company, priority 1997, dated 2002).

Where a name gives a salt, the structure may show the parent alone.

For `C/C=C(\CC)c1cccc2c1C[C@H](N(C)C)CC2` (as salt: hydrochloride), the melting point lay in the range of 158 to 160 °C. In the case of `Cc1cccc2c1C[C@H](N(C)C)CC2` (as salt: hydrochloride) it was 180 to 181 °C (dec.); in that of `COCCOCc1cccc2c1CC(N(C)C)CC2` (stereo not drawn) (as salt: hydrochloride), 147 to 148 °C; in that of `CN(C)C1CCc2cccc(C3(O)CCCCCC3)c2C1` (stereo not drawn) (as salt: hydrobromid) (hydrate or solvate), 186 to 187 °C. `CN(C)C1CCc2cccc(C3(O)CCCCC3)c2C1` (stereo not drawn) (as salt: hydrobromid) (hydrate or solvate) gave a melting point of 210 to 211 °C. Then `CN(C)C1CCc2cccc(C3CCCC3)c2C1` (stereo not drawn) (as salt: hydrochloride), with 158 to 159 °C.
